In patent publication US7812121B2 (priority 2006, dated 2010):

Columns and labels:
CD1 mice = assay: Mucosal weight gain in small intestine, 10 days daily s.c. dosing; format: in vivo; settings: 2.5 mg/kg (13.3 nmole), p<0.0001
Text: Afterwards, the mice were euthanized and the small intestines were removed, flushed with saline, and processed as described below.
Specifically, 4 cm sections were harvested: (1) immediately distal to the pylorus (duodenum), (2) starting 2 cm distal of the ligament of Treitz (jejunum), and (3) immediately proximal to the cecum (ileum). The remaining small intestine from ˜6 cm distal of the ligament of Treitz to 4 cm proximal to the cecum was used to prepare mucosal scrapings. From the proximal and distal ends of the remnant, an equal distance was removed until a 15 cm section remained, the remnant was cut longitudinally, rinsed, and the mucosal layer was removed using the short end of a glass microscope slide. The wet weight of the intact intestinal segments and mucosa was measured.

[1] = SEC-SLS solution molecular weight / self-association; format: physicochemical; settings: PBS (pH 7.5), 1 mg/ml
Description: Solution molecular weight of the peptides was measured by SEC-SLS. Briefly, peptide solutions in PBS (pH 7.5) at 0.4 to 2.0 mg/mL were fractionated over a Superdex peptide column (Amersham Pharmacia). The eluted peaks were monitored by static light scattering at 690 nm and solution molecular weight was determined at UV 280 nm using the Astra software package (Wyatt Inc.).

normal mice = assay: Upper gastrointestinal transit, carmine dye technique; format: in vivo; settings: 50 μg/mouse daily s.c. for 10 days, 20-minute test period, vs PBS vehicle
Description: To test the effects of A2G-GLP-2 on upper gastrointestinal transit in normal mice, mice were randomly assigned to 2 groups (14 animals per test group). Each group received daily subcutaneous injection (total volume […]) of either A2G-GLP-2 peptide (50 μg/mouse) or the phosphate-buffered saline vehicle for 10 consecutive days.
On the day of study, upper gastrointestinal transit was measured using the carmine dye technique. Mice were fed a test meal of 0.25 ml of a 6% (w/v) solution of carmine cochineal powder mixed into 0.5% (w/v) methylcellulose administered intragastrically by an 18 gauge curved feeding tube. Following oral test meal administration, mice were replaced into their home cages. Twenty minutes after marker meal administration, mice were rapidly euthanized by cervical dislocation and the entire gastrointestinal tract was excised starting from the distal colon and working towards the gastric pylorus. […] The linear distance traversed by the carmine dye front through the small intestine was measured together with the total length of the small bowel. Upper gastrointestinal transit was expressed as the percentage of the entire small intestine traversed by the carmine dye front during the 20-minute test period; % small intestine traveled=[distance traversed by dye front through small intestine (cm)/entire small intestine length (cm)×100].

[2] = CD spectra secondary structure; format: physicochemical; settings: 0.2 mg/mL peptide in PBS, 25° C.
Description: The secondary structures of tested peptides were determined using 0.2 mg/mL peptide solutions in PBS. Briefly, CD spectra were collected in triplicate at 1 nm intervals at 25° C. in 0.1 cm path length cell. Secondary structures were determined by fitting of the CD spectra using CD spectra software (CD Spectra Deconvolution software 2.1). All tested peptides contained peaks corresponding to the presence of alpha helices.

mice = assay: Myeloperoxidase histochemistry of intestinal muscularis in post-operative inflammatory ileus; format: in vivo; settings: 2 mg/kg one hour before surgery, tissue 48 hr after operation
Description: Myeloperoxidase histochemistry was performed on tissues harvested from the mid-small bowel of the mice 48 hr after the operation.
Briefly, segments of mid-small bowel were collected from the centrifuge tubes described in Example 12. Whole mounts of the muscle layer were prepared by pinning the tissue flat in a Sylgard® lined Petri dish and stretching the tissue to 2 times its length and 1.5 times its width. The mucosa was removed by fine dissection. The muscularis whole mounts were then fixed with 100% ethanol for 1 hr, washed 3 times with PBS, and incubated for 20 min in PBS containing 0.1% hydrogen peroxide and 1 mg/ml Hanker-Yates reagent. Following a second wash with PBS, the whole mounts were mounted on glass slides, cover-slipped, and viewed on an optical microscope. Myeloperoxidase containing leukocytes were counted in 6 to 8 adjacent 200× optical fields of view and the mean cell counts were calculated and recorded.

CD-1 mice = assay: Gastrointestinal transit in post-operative inflammatory ileus; format: in vivo; settings: 2 mg/kg one hour before surgery, FITC-dextran 48 hr after operation, 45 minutes
Description: On the day of study, upper gastrointestinal transit was measured using the FITC-dextran method. This method provides both, a measure of gastrointestinal transit and a readout of the pattern of distribution of the test meal along the gastrointestinal tract. Mice were fed a test meal of […] of FITC-dextran solution (5 mg/ml of 70,000 molecular weight dextran conjugated to fluorescein-isothiocyanate in 0.5% methylcellulose/deionized water) administered intragastrically by an 18 gauge curved feeding tube. Following oral administration of the FITC-dextran test meal, mice were returned to their home cages. It was shown that a 30 min test period was the optimum duration for detecting accelerated transit, while a 45 min test period was optimum for detecting delayed transit. Following the appropriate test period, mice were sacrificed by carbon dioxide exposure. The entire gastrointestinal tract from the lower esophageal sphincter to the terminal colon was removed. […] Aliquots of the cleared supernatant were read in duplicate on a 96-well fluorescence plate reader to quantify the magnitude of the fluorescent signal in each segment of bowel. […] The GC is calculated in the lower panel for statistical comparison. […]
All mice received an oral test meal of FITC-dextran 48 hr after the operation. Gastrointestinal transit was determined 45 minutes after oral feeding. […]

Row | Molecule | increase in mucosal wet weight (CD1 mice) | SEC-SLS elution / association state of peptides [1] | upper gastrointestinal transit (normal mice; listed as A2G-GLP-2) | upper gastrointestinal transit (normal mice; listed as A2G-GLP-2 peptide) | Helix [2] | Random coil [2] | number of MPO-positive leukocytes infiltrating small intestinal muscle layer (mice) | gastrointestinal transit after abdominal surgery (CD-1 mice; listed as murine A2G GLP-2 mimetibody) | gastrointestinal transit after abdominal surgery (CD-1 mice; listed as murine A2G-GLP-2 mimetibody)
1 | CC[C@H](C)[C@H](NC(=O)[C@H](Cc1ccccc1)NC(=O)[C@H](CC(=O)O)NC(=O)[C@H](CCCNC(=N)N)NC(=O)[C@H](C)NC(=O)[C@H](C)NC(=O)[C@H](CC(C)C)NC(=O)[C@H](CC(N)=O)NC(=O)[C@H](CC(=O)O)NC(=O)[C@H](CC(C)C)NC(=O)[C@@H](NC(=O)[C@@H](NC(=O)[C@H](CC(N)=O)NC(=O)[C@H](CCSC)NC(=O)[C@H](CCC(=O)O)NC(=O)[C@H](CC(=O)O)NC(=O)[C@H](CO)NC(=O)[C@H](Cc1ccccc1)NC(=O)[C@H](CO)NC(=O)CNC(=O)[C@H](CC(=O)O)NC(=O)CNC(=O)[C@@H](N)Cc1c[nH]cn1)[C@@H](C)O)[C@@H](C)CC)C(=O)N[C@@H](CC(N)=O)C(=O)N[C@@H](Cc1c[nH]c2ccccc12)C(=O)N[C@@H](CC(C)C)C(=O)N[C@H](C(=O)N[C@@H](CCC(N)=O)C(=O)N[C@H](C(=O)N[C@@H](CCCCN)C(=O)N[C@H](C(=O)N[C@H](C(=O)N[C@@H](CC(=O)O)C(=O)O)[C@@H](C)O)[C@@H](C)CC)[C@@H](C)O)[C@@H](C)CC [SEQ ID NO: 3, GLP-2(A2G), reference compound] | statistically significant increase | overlapping dimer and monomer peaks | acceleration of upper gastrointestinal transit | significant acceleration of intestinal transit | 20.7% | 37.1% | – | – | –
2 | SEQ ID NO: 80: human A2G-GLP2 peptide in murine IgG2a scaffold (protein, Human A2G-GLP2 peptide in murine IgG2a scaffold) HGDGSFSDEMNTILDNLAARDFINWLIQTKITDGSGGGSGTTVTVSAEPRGPTIKPCPPCKCPAPNAAGGPSVFIFPPKIKDVLMISLSPIVTCVVVDVSEDDPDVQISWFVNNVEVHTAQTQTHREDYNSTLRVVSALPIQHQDWMSGKEFKCKVNNKDLPAPIERTISKPKGSVRAPQVYVLPPPEEEMTKKQVTLTCMVTDFMPEDIYVEWTNNGKTELNYKNTEPVLDSDGSYFMYSKLRVEKKNWVERNSYSCSVVHEGLHNHHTTKSFSRTPGK | – | – | – | – | – | – | significantly reduced the number of infiltrating cells | significant attenuation of the delay in gastrointestinal transit | significant improvement in transit
